PubChem BioAssay (NCI)
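A five-concentration, 48-hour dose response in 96-well plates underlies each endpoint, interpolated linearly between surrounding concentrations. TGI denotes the concentration required for complete inhibition of growth.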

How the values were obtained:
Assay in all cases: DTP human tumour cell line panel, 48 h
[1] = tested on: BT-549 breast
[2] = tested on: A549 NSCLC
[3] = tested on: UACC-257 melanoma
[4] = tested on: SF-268 CNS
[5] = tested on: UACC-62 melanoma
[6] = tested on: TK-10 renal
[7] = tested on: OVCAR-4 ovarian
[8] = tested on: HL-60(TB) leukemia
[9] = tested on: SF-295 CNS
[10] = tested on: UO-31 renal
[11] = tested on: SK-OV-3 ovarian
[12] = tested on: A498 renal
[13] = tested on: NCI/ADR-RES ovarian
[14] = tested on: K-562 leukemia
[15] = tested on: HCT-116 colon
[16] = tested on: MALME-3M melanoma
[17] = tested on: RXF 393 renal
[18] = tested on: MOLT-4 leukemia
[19] = tested on: MDA-MB-231 breast
[20] = tested on: OVCAR-8 ovarian
[21] = tested on: MDA-MB-435
[22] = tested on: SK-MEL-2 melanoma
[23] = tested on: SW-620 colon
[24] = tested on: SK-MEL-28 melanoma
[25] = tested on: OVCAR-5 ovarian
[26] = tested on: IGROV1 ovarian
[27] = tested on: MCF7 breast
[28] = tested on: DU-145 prostate
[29] = tested on: EKVX NSCLC
[30] = tested on: 786-0 renal
[31] = tested on: COLO 205 colon
[32] = tested on: NCI-H460 lung
[33] = tested on: NCI-H226 lung
[34] = tested on: HT29 colon
[35] = tested on: HCT-15 colon
[36] = tested on: KM12 colon
[37] = tested on: SNB-75 CNS
[38] = tested on: PC-3 prostate
[39] = tested on: SF-539 CNS
[40] = tested on: SN12C renal
[41] = tested on: HS 578T breast
[42] = tested on: CCRF-CEM leukemia
[43] = tested on: LOX IMVI melanoma
[44] = tested on: MDA-N
[45] = tested on: M14 melanoma
[46] = tested on: HOP-92 NSCLC
[47] = tested on: T-47D breast
[48] = tested on: U251 CNS
[49] = tested on: ACHN renal
[50] = tested on: CAKI-1 renal
[51] = tested on: HCC-2998 colon
[52] = tested on: NCI-H23 lung
[53] = tested on: NCI-H522 lung
[54] = tested on: RPMI-8226 leukemia
[55] = tested on: HOP-62 NSCLC
[56] = tested on: OVCAR-3 ovarian
[57] = tested on: SNB-19 CNS
[58] = tested on: SK-MEL-5 melanoma

C[C@]12CC[C@@H]3c4cc(Br)c(O)c(Br)c4CC[C@H]3[C@@H]1CC(Br)C2=O (some centres undefined)
TGI [1]: 17.6 µM
TGI [2]: 38.8 µM
TGI [3]: 33.5 µM
TGI [4]: 26.8 µM
TGI [5]: 14.8 µM
TGI [6]: 29.4 µM
TGI [7]: > 100 µM
TGI [8]: 7.52 µM
TGI [9]: 33.1 µM
TGI [10]: 9.03 µM
TGI [11]: 30.2 µM
TGI [12]: 44.6 µM
TGI [13]: 39.5 µM
TGI [14]: 13.6 µM
TGI [15]: > 100 µM
TGI [16]: 34.2 µM
TGI [17]: 19.3 µM
TGI [18]: 9.36 µM
TGI [19]: 75 µM
TGI [20]: 7.83 µM
TGI [21]: 21.6 µM
TGI [22]: 27.3 µM
TGI [23]: 9.57 µM
TGI [24]: 22.3 µM
TGI [25]: 73.2 µM
TGI [26]: 23.6 µM
TGI [27]: 29.9 µM
TGI [28]: > 100 µM
TGI [29]: 39.6 µM
TGI [30]: > 100 µM
TGI [31]: > 100 µM
TGI [32]: 18.8 µM
TGI [33]: 26.6 µM
TGI [34]: 10.7 µM
TGI [35]: 10.1 µM
TGI [36]: 15.8 µM
TGI [37]: 27.9 µM
TGI [38]: 27.2 µM
TGI [39]: 24.4 µM
TGI [40]: 38.4 µM
TGI [41]: 82.4 µM
TGI [42]: 50.5 µM
TGI [43]: > 100 µM
TGI [44]: 43.5 µM
TGI [45]: > 100 µM
TGI [46]: 45.6 µM
TGI [47]: > 100 µM
TGI [48]: 12.7 µM
TGI [49]: 21.2 µM
TGI [50]: 15.9 µM
TGI [51]: 3.73 µM

CCO/C(O)=C(/C(=N)N1CCOCC1)C(=O)Nc1ccc(Cl)cc1
TGI [1]: > 100 µM
TGI [2]: > 100 µM
TGI [3]: > 100 µM
TGI [4]: > 100 µM
TGI [5]: > 100 µM
TGI [6]: > 100 µM
TGI [7]: > 100 µM
TGI [52]: > 100 µM
TGI [8]: > 100 µM
TGI [9]: > 100 µM
TGI [53]: > 100 µM
TGI [11]: > 100 µM
TGI [12]: > 100 µM
TGI [13]: > 100 µM
TGI [14]: > 100 µM
TGI [54]: > 100 µM
TGI [15]: > 100 µM
TGI [16]: > 100 µM
TGI [17]: > 100 µM
TGI [18]: > 100 µM
TGI [19]: > 100 µM
TGI [20]: > 100 µM
TGI [55]: > 100 µM
TGI [21]: > 100 µM
TGI [22]: > 100 µM
TGI [23]: > 100 µM
TGI [24]: > 100 µM
TGI [25]: > 100 µM
TGI [26]: > 100 µM
TGI [56]: > 100 µM
TGI [27]: > 100 µM
TGI [28]: > 100 µM
TGI [29]: > 100 µM
TGI [30]: > 100 µM
TGI [31]: > 100 µM
TGI [32]: > 100 µM
TGI [57]: > 100 µM
TGI [33]: > 100 µM
TGI [34]: > 100 µM
TGI [35]: > 100 µM
TGI [36]: > 100 µM
TGI [37]: > 100 µM
TGI [38]: > 100 µM
TGI [39]: > 100 µM
TGI [40]: > 100 µM
TGI [41]: > 100 µM
TGI [42]: > 100 µM
TGI [43]: > 100 µM
TGI [44]: > 100 µM
TGI [45]: > 100 µM
TGI [47]: > 100 µM
TGI [48]: > 100 µM
TGI [49]: > 100 µM
TGI [50]: > 100 µM
TGI [51]: > 100 µM

Cc1cc2c(O)c(c1)CN(Cc1ccccc1)Cc1cc(C)cc(c1O)CN(Cc1ccccc1)Cc1cc(C)cc(c1O)CN(Cc1ccccc1)C2
TGI [1]: > 100 µM
TGI [2]: > 100 µM
TGI [3]: > 100 µM
TGI [4]: > 100 µM
TGI [5]: > 100 µM
TGI [6]: > 100 µM
TGI [7]: > 100 µM
TGI [52]: > 100 µM
TGI [8]: > 100 µM
TGI [9]: > 100 µM
TGI [10]: > 100 µM
TGI [53]: > 100 µM
TGI [11]: > 100 µM
TGI [12]: > 100 µM
TGI [13]: > 100 µM
TGI [14]: > 100 µM
TGI [54]: > 100 µM
TGI [15]: > 100 µM
TGI [16]: > 100 µM
TGI [17]: > 100 µM
TGI [18]: > 100 µM
TGI [19]: > 100 µM
TGI [20]: > 100 µM
TGI [55]: > 100 µM
TGI [21]: > 100 µM
TGI [22]: 95.2 µM
TGI [23]: > 100 µM
TGI [24]: > 100 µM
TGI [25]: > 100 µM
TGI [26]: > 100 µM
TGI [56]: > 100 µM
TGI [27]: > 100 µM
TGI [28]: > 100 µM
TGI [30]: > 100 µM
TGI [31]: > 100 µM
TGI [32]: > 100 µM
TGI [57]: > 100 µM
TGI [33]: > 100 µM
TGI [34]: > 100 µM
TGI [35]: > 100 µM
TGI [36]: > 100 µM
TGI [37]: > 100 µM
TGI [38]: > 100 µM
TGI [39]: > 100 µM
TGI [40]: > 100 µM
TGI [41]: > 100 µM
TGI [42]: > 100 µM
TGI [43]: > 100 µM
TGI [44]: > 100 µM
TGI [45]: > 100 µM
TGI [47]: > 100 µM
TGI [48]: > 100 µM
TGI [49]: > 100 µM
TGI [58]: > 100 µM
TGI [50]: > 100 µM
TGI [51]: > 100 µM

O=C(C1OC1c1ccc(F)cc1)C12CC3CC(CC(C3)C1)C2 (centres undefined)
TGI [1]: 67.3 µM
TGI [2]: 59.7 µM
TGI [3]: 86.6 µM
TGI [4]: 61.2 µM
TGI [5]: 38.7 µM
TGI [6]: > 100 µM
TGI [7]: 40.2 µM
TGI [52]: 43.4 µM
TGI [8]: 31.1 µM
TGI [9]: 79.1 µM
TGI [10]: 51.5 µM
TGI [53]: 38.2 µM
TGI [11]: 70.3 µM
TGI [12]: 58 µM
TGI [13]: 48.1 µM
TGI [14]: 37.2 µM
TGI [15]: 20.1 µM
TGI [16]: 78.6 µM
TGI [17]: 32.7 µM
TGI [18]: 35.3 µM
TGI [19]: 52.8 µM
TGI [20]: 29 µM
TGI [55]: 70.8 µM
TGI [21]: 26.2 µM
TGI [22]: 30.6 µM
TGI [23]: 44.2 µM
TGI [24]: 59 µM
TGI [25]: 54.7 µM
TGI [26]: 59.8 µM
TGI [56]: 33.5 µM
TGI [27]: 95.4 µM
TGI [28]: > 100 µM
TGI [29]: 45.1 µM
TGI [30]: 36.5 µM
TGI [31]: 30.9 µM
TGI [32]: 31.1 µM
TGI [57]: > 100 µM
TGI [33]: 46.6 µM
TGI [34]: 45.4 µM
TGI [35]: 56.7 µM
TGI [36]: 46.8 µM
TGI [37]: > 100 µM
TGI [38]: > 100 µM
TGI [39]: 45.7 µM
TGI [40]: 44.4 µM
TGI [41]: 60.1 µM
TGI [42]: 37 µM
TGI [43]: 12.3 µM
TGI [44]: 32.5 µM
TGI [45]: 31.4 µM
TGI [46]: 52.7 µM
TGI [47]: > 100 µM
TGI [48]: 24.5 µM
TGI [49]: 85 µM
TGI [58]: 30.7 µM
TGI [50]: 57 µM
TGI [51]: 36.8 µM

O=C(c1ccc(Cl)cc1)N(C(=S)OC12CC3CC(CC(C3)C1)C2)c1ccccc1
TGI [1]: > 100 µM
TGI [2]: > 100 µM
TGI [3]: > 100 µM
TGI [4]: > 100 µM
TGI [5]: > 100 µM
TGI [6]: > 100 µM
TGI [7]: > 100 µM
TGI [52]: > 100 µM
TGI [8]: 62.6 µM
TGI [9]: > 100 µM
TGI [10]: 74.5 µM
TGI [53]: 56.3 µM
TGI [11]: > 100 µM
TGI [12]: > 100 µM
TGI [13]: > 100 µM
TGI [14]: > 100 µM
TGI [15]: > 100 µM
TGI [16]: > 100 µM
TGI [17]: > 100 µM
TGI [18]: 73.5 µM
TGI [19]: > 100 µM
TGI [20]: > 100 µM
TGI [55]: > 100 µM
TGI [21]: > 100 µM
TGI [22]: > 100 µM
TGI [23]: > 100 µM
TGI [24]: > 100 µM
TGI [25]: > 100 µM
TGI [56]: > 100 µM
TGI [27]: > 100 µM
TGI [28]: > 100 µM
TGI [29]: 66.5 µM
TGI [30]: > 100 µM
TGI [31]: 31.2 µM
TGI [32]: > 100 µM
TGI [57]: 89.7 µM
TGI [33]: > 100 µM
TGI [34]: > 100 µM
TGI [35]: > 100 µM
TGI [36]: > 100 µM
TGI [37]: > 100 µM
TGI [38]: > 100 µM
TGI [39]: > 100 µM
TGI [40]: > 100 µM
TGI [41]: > 100 µM
TGI [42]: > 100 µM
TGI [44]: > 100 µM
TGI [45]: > 100 µM
TGI [46]: > 100 µM
TGI [47]: > 100 µM
TGI [48]: > 100 µM
TGI [49]: > 100 µM
TGI [58]: > 100 µM
TGI [50]: > 100 µM
TGI [51]: > 100 µM
